Laboratory results as given in PubChem BioAssay (NCI).
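Cultured in 96-well plates, cells were exposed to test compound for 48 hours across five concentrations. GI50 marks 50% less growth. TGI marks complete inhibition of growth.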

What was measured:
Assay in all cases: NCI tumour cell line growth inhibition, 48 h
NCI/ADR-RES ovarian = tested on: NCI/ADR-RES ovarian
SF-295 CNS = tested on: SF-295 CNS
MCF7 breast = tested on: MCF7 breast
OVCAR-4 ovarian = tested on: OVCAR-4 ovarian
HT29 colon = tested on: HT29 colon
SK-OV-3 ovarian = tested on: SK-OV-3 ovarian
MDA-MB-231 breast = tested on: MDA-MB-231 breast
HCC-2998 colon = tested on: HCC-2998 colon
T-47D breast = tested on: T-47D breast
HOP-92 NSCLC = tested on: HOP-92 NSCLC

Row | SMILES | GI50 (NCI/ADR-RES ovarian) | TGI (NCI/ADR-RES ovarian) | GI50 (SF-295 CNS) | TGI (SF-295 CNS) | GI50 (MCF7 breast) | TGI (MCF7 breast) | GI50 (OVCAR-4 ovarian) | TGI (OVCAR-4 ovarian) | GI50 (HT29 colon) | TGI (HT29 colon) | GI50 (SK-OV-3 ovarian) | TGI (SK-OV-3 ovarian) | GI50 (MDA-MB-231 breast) | TGI (MDA-MB-231 breast) | GI50 (HCC-2998 colon) | TGI (HCC-2998 colon) | GI50 (T-47D breast) | TGI (T-47D breast) | GI50 (HOP-92 NSCLC) | TGI (HOP-92 NSCLC)
1 | Cc1sc(C(=O)Nc2cc(C(=O)NCCCN(C)C)n(C)c2)cc1NC(=O)CCCN1C(=O)c2cccc3cccc(c23)C1=O | > 100 µM | > 100 µM | > 100 µM | > 100 µM | > 100 µM | > 100 µM | 41 µM | > 100 µM | > 100 µM | > 100 µM | > 100 µM | > 100 µM | > 100 µM | > 100 µM | > 100 µM | > 100 µM | > 100 µM | > 100 µM | > 100 µM | > 100 µM
2 | CCN(CC)S(=O)(=O)c1ccc(OC)c(Nc2ncc(-c3ccccc3)o2)c1 | > 17.8 µM | > 25 µM | > 16.5 µM | > 25 µM | > 14.7 µM | > 25 µM | 5.57 µM | > 25 µM | > 17.6 µM | > 25 µM | 20.9 µM | > 25 µM | > 13.9 µM | > 25 µM | > 25 µM | > 25 µM | > 11 µM | 24.4 µM | 7.12 µM | > 25 µM
3 | CCCCOc1ccc(NC(N)=Nc2ccc(Cl)cc2)cc1 | – | 18.9 µM | – | 6.34 µM | – | 4.2 µM | – | 17.5 µM | – | 11.3 µM | – | 22.7 µM | – | 27.2 µM | – | 2.64 µM | – | 18.9 µM | – | 16 µM
4 | ClCCn1c(CCl)nc2ccc(Cl)cc21 | 1.21 µM | 4.36 µM | 2.21 µM | 5.5 µM | 0.372 µM | 2.01 µM | 1.34 µM | 4.71 µM | 0.436 µM | 1.39 µM | 0.305 µM | 0.853 µM | 1.52 µM | 3.38 µM | 2.01 µM | 3.87 µM | 1.86 µM | 4.19 µM | 0.938 µM | 2.63 µM
5 | O=C1c2ccccc2-c2c1c1ccccc1c(=O)n2CCCNCCCNCCCn1c2c(c3ccccc3c1=O)C(=O)c1ccccc1-2 | 0.319 µM | 1.98 µM | 0.0151 µM | 1.26 µM | 0.0382 µM | 0.18 µM | 0.188 µM | 1.02 µM | < 0.01 µM | 0.135 µM | 1.9 µM | 6.04 µM | < 0.01 µM | 0.112 µM | < 0.0162 µM | 0.167 µM | 1.64 µM | 6.4 µM | 0.587 µM | 2.18 µM
6 | CCCCCn1c(=N)n(CC(O)COc2cccc(C)c2)c2ccccc21 (stereo not given) | 10.5 µM | 27.1 µM | 5.62 µM | 22.8 µM | 2.85 µM | 11.6 µM | 3.67 µM | 17.6 µM | 2.73 µM | 11.2 µM | 11.8 µM | 24.2 µM | 5.39 µM | 18.8 µM | 2.1 µM | 3.98 µM | 3.33 µM | 10.6 µM | 2.74 µM | 14.8 µM
7 | C1CCSCCCCSCCCCSCCCCSC1 | – | > 100 µM | – | > 100 µM | – | > 100 µM | – | > 100 µM | – | > 100 µM | – | > 100 µM | – | > 100 µM | – | > 100 µM | – | > 100 µM | – | > 100 µM
8 | COc1ccc(N2C(C)=C(C#N)C34C(=O)N(c5ccccc5)C(=O)C3=C(O)C=CC24O)cc1 (stereo not given) | 29 µM | 91 µM | 3.49 µM | 15.1 µM | 10.6 µM | 34.9 µM | 24.4 µM | 94.5 µM | 12.3 µM | 28.3 µM | 36.2 µM | > 100 µM | 14.5 µM | 29.8 µM | 9.88 µM | 23.6 µM | 13 µM | 33.8 µM | 12.5 µM | 45.3 µM
9 | CN1CCN(CCc2cccc(C(=O)c3cnn(-c4ccc(F)cc4)c3N)c2)CC1 | > 25 µM | > 25 µM | > 25 µM | > 25 µM | > 25 µM | > 25 µM | > 25 µM | > 25 µM | > 25 µM | > 25 µM | > 25 µM | > 25 µM | > 25 µM | > 25 µM | > 25 µM | > 25 µM | > 25 µM | > 25 µM | > 25 µM | > 25 µM
10 | CCN(Cc1ccc(F)c(F)c1)c1ccc(CO)c(Cl)c1 | 11.4 µM | 27.4 µM | 0.51 µM | 12.1 µM | 0.195 µM | 12.3 µM | 0.18 µM | 1.46 µM | 4.52 µM | 19.1 µM | 5.94 µM | 19.3 µM | 12.8 µM | 26.6 µM | 5.59 µM | 21.6 µM | 0.0977 µM | 0.667 µM | 0.835 µM | 12.2 µM
11 | O=CNc1c(Cl)cc2c(c1Cl)Cc1cc([N+](=O)[O-])ccc1-2 | 4.49 µM | 38.3 µM | 3.05 µM | 14.3 µM | 0.34 µM | > 100 µM | 6.11 µM | > 100 µM | 4.41 µM | > 54.8 µM | 9.92 µM | 41.5 µM | 8.16 µM | 47.7 µM | 5.84 µM | 39.9 µM | 5.49 µM | > 100 µM | 6.73 µM | > 100 µM
12 | CCCN=Cc1cc(Cc2ccc(O)c(C=NCCC)c2)ccc1O | – | 59.6 µM | – | 52.5 µM | – | 6.87 µM | – | 86.1 µM | – | 27.6 µM | – | 82.4 µM | – | 33.5 µM | – | 27.8 µM | – | 6.33 µM | – | 8.03 µM
13 | Cc1ccc(S(=O)(=O)N2CCSCCSCCSCCSCC2)cc1 | – | 77.1 µM | – | 39.3 µM | – | > 100 µM | – | 64.2 µM | – | > 100 µM | – | 46 µM | – | 56.6 µM | – | > 100 µM | – | 74.1 µM | – | 23.4 µM
14 | CN(CCCN)CCCNc1nc2ccccc2c2[nH]c3ccccc3c12 | 1.48 µM | 10.8 µM | 0.224 µM | 0.738 µM | 0.245 µM | 1.03 µM | 0.201 µM | 0.614 µM | 0.193 µM | 0.951 µM | 2.07 µM | 7.29 µM | 0.231 µM | 0.774 µM | 0.113 µM | 0.271 µM | 0.283 µM | 0.772 µM | 0.208 µM | 0.736 µM
15 | COc1c(CCC[P+](c2ccccc2)(c2ccccc2)c2ccccc2)cc2c(c1OC)OCO2 | > 100 µM | > 100 µM | 2.62 µM | 8.38 µM | 1.12 µM | 10.7 µM | 1.59 µM | 12.5 µM | 1.08 µM | 18.8 µM | 2.56 µM | 8.45 µM | 2.14 µM | 10.9 µM | 2.22 µM | 14.6 µM | 0.419 µM | 35.3 µM | 0.507 µM | 4.93 µM
16 | COC(=O)/C=C/C=C(c1ccccc1)c1ccccc1 | 3.12 µM | 17 µM | 2.76 µM | 8.12 µM | 4.08 µM | > 100 µM | 8.59 µM | > 100 µM | 3.85 µM | > 100 µM | 5.93 µM | 48.9 µM | 11.1 µM | 36 µM | 28.8 µM | > 100 µM | 3.16 µM | > 100 µM | 3.52 µM | 38.8 µM
17 | Cc1[c-]onc1C.Cc1[c-]onc1C.[Ag].[Ag].[NH-]S(=O)(=O)c1ccc(N=Nc2cc(N=Nc3ccc(S([NH-])(=O)=O)cc3)c3c(NC(=O)C(Cl)Cl)cccc3c2OC(=O)C(Cl)Cl)cc1 | 21 µM | > 50 µM | 33.9 µM | > 50 µM | 2.12 µM | > 50 µM | 7.66 µM | 15.1 µM | 9.29 µM | 21.7 µM | 9.66 µM | 18.5 µM | 5.44 µM | 19.1 µM | 10.9 µM | 26 µM | 2.1 µM | 17.4 µM | 7.85 µM | 18.4 µM
